Assay results: patent publication US20140155445A1, “Compounds and Methods for Treating Cancer and Diseases of the Central Nervous System” (Osta Biotechnologies Inc., priority 2007, published 2014)

Key:
[1] = test system: rat C6 glioma cells; test: Cell proliferation, [3H]thymidine incorporation, rat C6 glioma cells; format: cell-based; conditions: 6.5 μM, 18 h, hHO-1-transfected rat C6 glioma cells; hydrochloride
Description: Rat C6 glioma cells were cultivated in high glucose DMEM supplemented with 10% heat-inactivated fetal bovine serum, […], and penicillin-streptomycin (50 U/mL and 50 μg/mL, respectively). […] All cultures were incubated at 37° C. in humidified 95% air-5% CO2.
Cells were seeded in 24-well plates at 1×10^6 cells/mL/well. Upon reaching >90% confluence, cells in each well were transiently transfected with 1.6 μg of plasmid DNA-Lipofectamine 2000 complex using Lipofectamine 2000 method according to manufacturer instructions (Invitrogen). 1.6 μg of plasmid DNA and 4 μL of Lipofectamine 2000 reagent were diluted individually in 100 μL opti-MEM I and incubated for 5 minutes at room temperature with gentle mixing. […]
Cell proliferation was determined by [^3H]thymidine incorporation: Cells were plated in 24-well plates at 10^6 cells/mL/well in complete medium. […] The cells were trypsinized and collected, air-dried on 21 mm glass microfibre filters (Whatman International Ltd., Maidstone, England) and analyzed by scintillation counting in a Wallac-Liquid Scintillator Counter (Perkin Elmer Life Sciences, Boston, Mass., USA). [^3H]thymidine incorporation was expressed as counts per min (cpm) per mL.

[2] = test system: HCT-116 colorectal carcinoma; test: Colorectal carcinoma model HCT-116 in SCID mice; format: in vivo, human
Source text: Control groups received the vehicle alone.

[3] = Pharmacokinetic evaluation of QC-56 in mouse brain; format: in vivo; conditions: brain tissue, i.v. tail vein injection
Source text: Regular male CD1 mice, 6 weeks old, were obtained from Charles River Laboratories, St. Zotique, PQ, Canada. The mice weighed 22-28 g. The experiments were approved by the Animal Care Committee, McGill University, Montreal, Quebec. The animals were housed in individual cages and were fed standard rodent chow and water ad libitum. […] In this case, mice were anesthetized using isoflurane-based system (DISPOMED, MODUFLEX COMPACT NRB, 3975-0800-000). […] Serum was collected after the samples were centrifuged 2200×, 4° C. for 20 minutes and stored at −80° C. until analysis. For the brain tissue collection, skin of mice was removed and brain was carefully dissected out from the skull, transferred into a Petri dish, briefly washed with ice-cold phosphate-buffered saline (PBS), and immediately stored at −80° C. until further analysis.
The assay of QC-56 in mouse brain samples was carried out using a qualified LC/MS/MS assay method.

[4] = test system: PC-3 (human prostate carcinoma); test: Prostate carcinoma model PC-3 in SCID mice
Source text: • Species and strain: Mouse (Mus musculus); female SCID (MDA231 and OVCAR3), male SCID (PC-3, HCT116); male CD57 B16 mice (BL16-BL6) • Age: 6-8 weeks old. • Supplier: Charles River Laboratories, Inc., St-Constant, Quebec, Canada. • Acclimation: Mice were acclimated to laboratory conditions for approximately 1 week prior to tumor cell inoculation. • Identification: Mice were identified by ear punch combination. • Housing: Mice were housed in groups of 3-5 in a designated animal facility with a temperature of 22° C., a relative humidity of 40-50%, and a 12 hr light/dark cycle.
PC-3 (human prostate carcinoma). These cells were originally received from the ATCC. Early passage cells (tested free of mycoplasma) were grown to 60% confluence in DMEM medium supplemented with 10% fetal bovine serum, and antibiotics. Cell harvesting was performed using trypsin-EDTA solution.
Exponentially growing cells were harvested using trypsin-EDTA solution. […] Cell viability was confirmed by trypan blue staining. […] One to 2 millions cells suspended in 0.1 mL phosphate buffer solution was implanted into the mammary fat pad (MCF7) or subcutaneously into the axillary region of the right flank of recipient SCID mice. All animals were inoculated at the same site.
Mice were subjected to general examination on daily basis. […] Control groups received the vehicle alone. Chemotherapy drugs were also given by intraperitoneal route according to the schedule described below.
Primary tumor growth was monitored every second to fourth day using calipers. Relative tumor volume (cm^3) was determined by the formula:
Body weights were monitored every third to fifth day. Animals experiencing signs of discomfort were sacrificed immediately (in some cases they were replaced by spared mice). […] Mice were sacrificed by cervical dislocation and immediately subjected to full autopsy.

[5] = test system: SKMEL-V+ cells; test: Melanoma efficacy study of QC-199, SKMEL-V+ cells s.c. in Scid mice; format: in vivo, human; conditions: for reduction of tumor volume vs vehicle: 2 cycles
Description: BD PharMingen, San Diego, Calif.). Cryostat sections were used for CD31 staining. […] Sections were rehydrated in PBS and then blocked with 5% normal goat serum for 1 h. The sections were then incubated overnight at 4° C. with CD31 antibody diluted 1:25 in 3% BSA-PBS. […] Sections were counterstained with Harris' hematoxylin and mounted. Slides were analyzed by conventional light microscopy and photographed using color slides (Eastman Kodak, Rochester, N.Y.). Balb/c Scid mice, 6 week-old, were obtained from Charles River Laboratories, St. Zotique, PQ, Canada. The mice weighed 18-22 g. The experiments were approved by the Animal Care Committee, McGill University, Montreal. The animals were housed in individual cages (4 per cage) and were fed standard rodent chow and water ad libitum. […] When the tumors become palpable (size of a rice), mice weights were measured with a digital balance accurate to 0.05 g. […] For the infusion, mice were anesthetized using isoflurane-based system ([…] COMPACT NRB, 3975-0800-000). For the infusion, a mini pump (NE-1800, New Era Pump Systems, Inc.) was used to infuse the compound via the tail vein during a 2 h period. […] At experiment termination, mice were anesthetized with isoflurane and sacrificed by cervical dislocation. Tumors were dissected and tumor weights were measured using a digital balance.

**Q.** Which results are given for `Brc1ccc(CCC2(Cn3ccnc3)OCCO2)cc1.Cl` [QC-56, 1-((2-(2-(4-Bromophenyl)ethyl)-1,3-dioxolan-2-yl)methyl)-1H-imidazole hydrochloride]?
**A.** effect of hHO-1 transfection on 3H-thymidine incorporation [1]: significantly attenuated; mouse mortality ([2]; 60 mg/kg, HCT-116 model (FIG. 25)): but not QC-56, induced mortality; reduction of tumor volume at the time of sacrifice compared to control ([2]; QC-56 60 mg/kg/ip, 5-FU 60 mg/kg/ip reduced to 40 mg/kg): approximately 23%; time of maximal brain concentration [3]: 1 min; AUC0→3 hrs ([3]; male CD-1 mice): 60.3 µg·h/g; AUC0→inf ([3]; male CD-1 mice): 158 µg·h/g; T1/2z ([3]; male CD-1 mice): 4.30 h; concentration at 180 min ([3]; male, CD-1, mouse, iv, read-out: brain concentration at 180 min post-dose): 15800 ± 800 ng/g; Cmax ([3]; mouse, iv, male CD-1 mice): 50200 ± 3200 ng/g; Body Weights (g) d8 (mean + SE) ([4]; PC-3 mice, treatment day 8): 22.30 ± 7.88 g; Body Weights (g) d42 (mean + SE) ([4]; PC-3 mice, treatment day 42): 18.10 ± 7.38 g; inhibition of tumor growth compared to vehicle alone ([4]; QC-56 60 mg/kg/ip, Taxol 10 mg/kg): approximately 25%

**Q.** With `Brc1ccc(CCCCn2ccnc2)cc1.Cl` [QC-199, 1-[4-(4-bromophenyl)butyl]-1H-imidazole hydrochloride] as the compound, how does the “reduction of tumor volume vs vehicle” value ([5]; 30 mg/kg i.v. infusion, d1, 3, 5 per cycle) read?
**A.** The value was 30%.

**Q.** What about the “reduction of tumor volume vs vehicle” value ([5]; 60 mg/kg i.v. infusion, d1, 3, 5 per cycle, p less than 0.05) of the same compound?
**A.** The value was 52%.

**Q.** And the “reduction of tumor volume vs vehicle” value ([5]; 200 mg/kg i.v. infusion, d1, 5 per cycle, p less than 0.01)?
**A.** Its value is 69%.

**Q.** And the “reduction of tumor volume vs vehicle” value ([5]; 1000 mg/kg i.v. infusion, d1, 5 per cycle, p less than 0.01)?
**A.** Its value is 78%.

**Q.** And the “vascularization of dissected tumors (H&E staining)” value ([5]; QC-199 30-1000 mg/kg)?
**A.** Its value is “dose dependent reduction in vascularization”.
